Measurements reported in patent US8710233B2 (Gruenenthal GmbH, priority 2005, dated 2014).
Like-named read-outs stand apart in the source and are kept apart here.

Key:
[1] = test system: formaldehyde induced nociceptive behaviour; experiment: Formaldehyde test in mice, second (late) phase; type: in vivo, mouse; details: mouse, read-out: inhibition formaldehyde test (n = 10)
[2] = test system: capsaicin induced hypothermie; experiment: Hypothermie assay in the mouse (capsaicin induced hypothermie); type: in vivo; details: as printed in this column, read-out: inhibition hypothermie (n = 5)
[3] = molecular target: T1, vanilloid receptor 1 (VR1/TRPV1) of the rat species (Rattus norvegicus, UniProt O35433); experiment: FLIPR Ca2+ influx assay on rat dorsal root ganglia cells (pharmacological method I); type: cell-based
T1 construct: The spinal column is removed from decapitated rats; from tissue; host or cells: primary cells dissociated from rat dorsal root ganglia
Summary of the method: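 Primary rat dorsal root ganglion cells loaded with 2 μM Fluo-4, Ca2+ influx read on FLIPR as peak fluorescence. Triplicates, at least 3 independent experiments.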

[4] = molecular target: T2, vanilloid receptor (VR1) (Homo sapiens, UniProt Q8NER1); experiment: FLIPR Ca2+ influx assay on CHO K1 cells transfected with the VR1 gene (pharmacological method II); type: cell-based
T2 construct: expressed in transfected cells; host or cells: CHO K1 cells (ECACC), stably transfected

[5] = molecular target: VR1/TRPV1 receptor (Homo sapiens, UniProt Q8NER1); experiment: IC50 (human) after pH stimulus; type: cell-based; details: Table 2
[6] = Table 2, displacement of capsaicin (100 nM), Cheng-Prusoff, read-out: Ki (rat)
[7] = Table 2, displacement of capsaicin (100 nM), Cheng-Prusoff, read-out: Ki (human)

T1 sequence (O35433 whole entry): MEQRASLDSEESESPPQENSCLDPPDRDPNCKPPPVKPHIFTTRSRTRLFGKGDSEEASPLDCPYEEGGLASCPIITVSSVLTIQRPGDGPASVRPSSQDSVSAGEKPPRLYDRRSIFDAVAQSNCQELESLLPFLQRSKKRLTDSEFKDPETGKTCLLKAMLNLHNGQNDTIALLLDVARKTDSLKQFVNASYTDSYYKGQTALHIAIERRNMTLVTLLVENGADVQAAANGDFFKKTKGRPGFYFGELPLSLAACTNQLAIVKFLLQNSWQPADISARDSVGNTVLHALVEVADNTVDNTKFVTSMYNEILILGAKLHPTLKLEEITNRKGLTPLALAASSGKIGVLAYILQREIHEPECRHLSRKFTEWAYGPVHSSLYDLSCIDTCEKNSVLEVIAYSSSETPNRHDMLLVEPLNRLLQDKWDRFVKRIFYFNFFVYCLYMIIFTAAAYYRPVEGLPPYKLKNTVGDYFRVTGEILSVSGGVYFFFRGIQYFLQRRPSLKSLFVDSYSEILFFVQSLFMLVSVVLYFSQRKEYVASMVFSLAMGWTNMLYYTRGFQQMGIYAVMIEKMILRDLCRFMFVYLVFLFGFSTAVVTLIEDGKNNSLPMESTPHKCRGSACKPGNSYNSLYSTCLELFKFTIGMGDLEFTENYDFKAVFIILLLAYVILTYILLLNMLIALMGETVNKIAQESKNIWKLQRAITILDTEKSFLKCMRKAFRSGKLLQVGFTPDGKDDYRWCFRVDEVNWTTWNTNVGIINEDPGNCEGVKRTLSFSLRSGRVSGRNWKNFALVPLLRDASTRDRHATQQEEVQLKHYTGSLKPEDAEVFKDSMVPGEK
T2 sequence (Q8NER1 whole entry): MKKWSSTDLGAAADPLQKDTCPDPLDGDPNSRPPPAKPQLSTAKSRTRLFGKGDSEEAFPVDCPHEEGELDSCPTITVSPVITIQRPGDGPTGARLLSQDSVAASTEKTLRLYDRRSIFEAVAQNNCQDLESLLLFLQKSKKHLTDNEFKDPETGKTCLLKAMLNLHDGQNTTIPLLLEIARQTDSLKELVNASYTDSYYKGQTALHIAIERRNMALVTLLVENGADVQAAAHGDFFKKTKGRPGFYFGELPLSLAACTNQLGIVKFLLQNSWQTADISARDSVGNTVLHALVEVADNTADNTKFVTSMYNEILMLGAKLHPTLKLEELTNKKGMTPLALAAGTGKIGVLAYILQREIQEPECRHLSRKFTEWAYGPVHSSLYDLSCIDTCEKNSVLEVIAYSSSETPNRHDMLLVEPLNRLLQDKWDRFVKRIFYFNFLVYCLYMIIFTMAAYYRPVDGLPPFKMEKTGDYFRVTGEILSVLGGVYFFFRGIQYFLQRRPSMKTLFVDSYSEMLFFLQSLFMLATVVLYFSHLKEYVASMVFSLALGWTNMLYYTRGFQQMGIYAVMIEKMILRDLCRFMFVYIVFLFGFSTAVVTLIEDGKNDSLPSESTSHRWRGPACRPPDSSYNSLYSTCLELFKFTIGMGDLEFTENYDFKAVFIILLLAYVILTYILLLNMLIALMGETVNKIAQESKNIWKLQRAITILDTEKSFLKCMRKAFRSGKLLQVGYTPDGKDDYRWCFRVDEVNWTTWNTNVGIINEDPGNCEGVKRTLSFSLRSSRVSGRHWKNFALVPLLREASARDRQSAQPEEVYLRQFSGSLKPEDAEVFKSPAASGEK
Chain of VR1/TRPV1 receptor (Q8NER1 whole entry): as above

SMILES	Ki [3, 6] [nM]	Ki [4, 7] [nM]	melting point [°C]	IC50 [5] [nM]	Ki ([3]; table 4, capsaicin, read-out: Ki (rat) Cap.) [nM]	Ki ([4]; table 4, capsaicin, read-out: Ki (human) Cap.) [nM]	inhibition in vivo at 1 mg/kg ([1]; 1 mg/kg body weight po) [%]	inhibition at 1 µM ([2]; @ 1 μM) [%]	inhibition in vivo at 0.3 mg/kg ([1]; 0.3 mg/kg body weight po) [%]	inhibition at 10 µM ([2]; @ 10 μM) [%]
CC(C(=O)NCc1ccc(C(C)(C)C)cc1OCC(C)(C)C)c1ccc(NS(C)(=O)=O)c(F)c1 (stereo not drawn) [Compound 152]	–	–	–	–	–	–	24	45	–	–
Cc1nc(C(F)(F)F)ccc1CNC(=O)C(C)c1ccc(NS(C)(=O)=O)c(F)c1 (stereo not drawn) [Example 1, 2-(3-fluoro-4-(methylsulfonamido)phenyl)-N-((2-methyl-6-(trifluoromethyl)pyridin-3-yl)methyl)propanamide]	684	387	149 to 152	–	–	–	–	–	–	–
CC(C(=O)NCc1ccc(C(F)(F)F)nc1N1CCCCC1)c1ccc(NS(C)(=O)=O)c(F)c1 (stereo not drawn) [Example 2, 2-(3-fluoro-4-(methylsulfonamido)phenyl)-N-((2-(piperidin-1-yl)-6-(trifluoromethyl)pyridin-3-yl)methyl)propanamide]	3.5	0.4	75 to 79	218	–	–	–	–	–	–
CC(C(=O)NCc1ccc(C(C)(C)C)cc1OCC(C)(C)C)c1ccc(NS(C)(=O)=O)c(F)c1 (stereo not drawn) [Example 152, N-[4-tert-butyl-2-(2,2-dimethyl-propoxy)-benzyl]-2-(3-fluoro-4-methylsulfonamido-phenyl)-propionamide]	–	–	–	–	2.2	3.8	–	–	33	63

Continued, in another order:

Ki [3, 6] [nM]	Ki [4, 7] [nM]	melting point [°C]	IC50 [5] [nM]	Ki ([3]; table 4, capsaicin, read-out: Ki (rat) Cap.) [nM]	Ki ([4]; table 4, capsaicin, read-out: Ki (human) Cap.) [nM]	SMILES	inhibition in vivo at 1 mg/kg ([1]; 1 mg/kg body weight po) [%]	inhibition at 1 µM ([2]; @ 1 μM) [%]	inhibition in vivo at 0.3 mg/kg ([1]; 0.3 mg/kg body weight po) [%]	inhibition at 10 µM ([2]; @ 10 μM) [%]
2.6	1.7	126 to 127	135	–	–	CC(C(=O)NCc1ccc(C(F)(F)F)cc1N1CCCCC1)c1ccc(NS(C)(=O)=O)c(F)c1 (stereo not drawn) [Example 3]	–	–	–	–
1.1	0.3	75 to 79	64	–	–	C[C@H](C(=O)NCc1ccc(C(F)(F)F)nc1N1CCCCC1)c1ccc(NS(C)(=O)=O)c(F)c1 [Example 10, (S)-2-(3-fluoro-4-(methylsulfonamido)phenyl)-N-((2-(piperidin-1-yl)-6-(trifluoromethyl)pyridin-3-yl)methyl)propanamide]	–	–	–	–
